Earlier results in US12296049B2, “Immediate release dosage form” (Kenvue Brands LLC, priority 2019, dated 2025).

Conditions: at lower acidic pH it precipitates

## COc1ccc2cc([C@H](C)C(=O)O)ccc2c1 [naproxen sodium]
  pH at which the drug stays in solution: above 5.4
